Data reported in the supplement of paper PMC10307832.

What was measured:
Experiment in all cases: relative viability (nuclei count vs DMSO), 5 days (fraction); higher = more cells survive
[1] = compound: CC[C@@H]1C(=O)N(C)c2cnc(Nc3ccc(C(=O)NC4CCN(C)CC4)cc3OC)nc2N1C1CCCC1 [BI-2536] + NC(=O)Nc1cc(-c2cccc(F)c2)sc1C(=O)N[C@H]1CCCNC1 [AZD7762] (partner 0.2 µM)
Method in brief: (§1)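 A single step with final 0.05% Triton X-100, 1% formaldehyde and 1 ug/ml Hoechst fixed the cells and stained nuclei 5 days after treatment. Lung cancer cell lines in 1536-well plates had been treated by pin tool the day after seeding with one drug alone or a fixed anchor-drug dose plus five library-drug doses (not always all listed) in √10 steps, and nuclei were counted on 4× images. Relative viability is the ratio of nuclei in treated wells to nuclei in vehicle wells, taken as the median of duplicate plates.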

[2] = compound: CC1CC(=O)N(C2=CN=C(N=C2N1C3CCCC3)NC4=C(C=C(C=C4)C(=O)NC5CCN(CC5)C)OC)C [NPK76-II-72-1] + CCNC(=O)c1noc(-c2cc(C(C)C)c(O)cc2O)c1-c1ccc(CN2CCOCC2)cc1 [Luminespib] (partner 0.01 µM)
Method in brief: as §1

[3] = compound: CC[C@@H]1C(=O)N(C)c2cnc(Nc3ccc(C(=O)NC4CCN(C)CC4)cc3OC)nc2N1C1CCCC1 [BI-2536] + CS(=O)(=O)N1CCN(Cc2cc3nc(-c4cccc5[nH]ncc45)nc(N4CCOCC4)c3s2)CC1 [Pictilisib] (partner 1 µM)
Method in brief: as §1

[4] = compound: CC1CC(=O)N(C2=CN=C(N=C2N1C3CCCC3)NC4=C(C=C(C=C4)C(=O)NC5CCN(CC5)C)OC)C [NPK76-II-72-1] + O=C(c1cc(Cc2n[nH]c(=O)c3ccccc23)ccc1F)N1CCN(C(=O)C2CC2)CC1 [Olaparib] (partner 8 µM)
Method in brief: as §1

Cell Line	relative viability ([1]; first compound 0.01 µM)	relative viability ([1]; first compound 0.03162 µM)	relative viability ([1]; first compound 0.1 µM)	relative viability ([1]; first compound 0.3162 µM)	relative viability ([1]; first compound 1 µM)	relative viability ([2]; first compound 0.01 µM)	relative viability ([2]; first compound 0.03162 µM)	relative viability ([2]; first compound 0.1 µM)	relative viability ([2]; first compound 0.3162 µM)	relative viability ([2]; first compound 1 µM)	relative viability ([3]; first compound 0.01 µM)	relative viability ([3]; first compound 0.03162 µM)	relative viability ([3]; first compound 0.1 µM)	relative viability ([3]; first compound 0.3162 µM)	relative viability ([3]; first compound 1 µM)	relative viability ([4]; first compound 0.01 µM)	relative viability ([4]; first compound 0.03162 µM)	relative viability ([4]; first compound 0.1 µM)	relative viability ([4]; first compound 0.3162 µM)	relative viability ([4]; first compound 1 µM)
NCI-H322M	0.61	0.53	0.496	0.394	0.406	0.818	0.826	0.943	0.783	1.01	0.303	0.478	0.559	0.519	0.271	0.582	0.828	0.623	0.878	0.791
NCI-H3122	0.939	1	0.204	0.139	0.117	0.095	0.101	0.113	0.0814	0.079	0.55	0.555	0.153	0.23	0.201	0.6	0.6	0.722	0.653	0.589
NCI-H2087	1.26	1.45	1.23	0.111	0.114	0.154	0.16	0.136	0.158	0.185	1	0.872	0.381	0.192	0.143	0.532	0.653	0.548	0.672	0.626
LC-2-ad	0.872	0.657	0.166	0.17	0.142	0.979	1.12	0.955	1.04	1.16	0.552	0.192	0.0937	0.0909	0.0871	0.673	0.72	0.702	0.704	0.683
NCI-H1915	0.641	0.696	0.535	0.195	0.109	0.762	0.798	0.75	0.7	0.845	0.866	0.899	0.264	0.074	0.0908	0.271	0.254	0.262	0.253	0.246
NCI-H1793	0.45	0.519	0.102	0.128	0.123	0.144	0.166	0.203	0.176	0.201	0.294	0.214	0.191	0.174	0.159	–	0.985	1.02	0.589	0.808
RERF-LC-KJ	0.943	0.926	0.808	0.142	0.174	1.33	1.41	1.3	1.21	1.33	0.565	0.48	0.249	0.145	0.206	0.903	0.914	0.908	0.901	0.905
LXF-289	1	1.14	0.61	0.0819	0.083	0.614	0.761	0.675	0.694	0.688	0.839	0.759	0.126	0.0466	0.0562	0.966	1.07	1.05	1.04	1.07
PC-14	0.41	0.395	0.32	0.0493	0.0531	0.133	0.125	0.239	0.132	0.164	0.688	0.563	0.156	0.0423	0.0236	0.295	0.377	0.384	0.267	0.32
NCI-H650	0.944	1.4	0.541	0.201	0.138	0.72	0.843	0.718	0.615	0.891	0.849	0.584	0.245	0.206	0.15	0.391	0.316	0.397	0.354	0.489
NCI-H1666	0.803	0.851	0.827	0.411	0.368	0.977	1.03	0.987	0.924	1.06	0.558	0.393	0.2	0.221	0.2	0.74	0.754	0.735	0.84	0.758
NCI-H2085	1.03	0.963	0.737	0.217	0.27	0.442	0.437	0.391	0.381	0.437	0.395	0.504	0.371	0.183	0.224	0.718	0.77	0.783	0.726	0.83
NCI-H1734	0.461	0.596	0.16	0.134	0.142	0.167	0.178	0.189	0.17	0.186	0.402	0.387	0.347	0.17	0.216	0.582	0.72	0.745	0.542	0.667
NCI-H2126	1.01	1.09	0.855	0.428	0.223	0.88	0.907	0.933	0.814	0.901	0.509	0.48	0.27	0.247	0.253	0.903	0.897	0.901	0.855	0.956
EMC-BAC-2	1.05	1.21	0.777	0.269	0.277	1.14	1.19	1.16	1.09	1.38	0.502	0.559	0.305	0.162	0.163	0.468	0.506	0.51	0.486	0.541
NCI-H1993	0.734	0.668	0.407	0.53	0.348	0.848	0.87	0.925	0.764	0.818	0.981	0.681	0.638	0.664	0.631	0.96	1.05	1.24	1.07	1.29
